Experimental data reported in ChEMBL document CHEMBL6109089, “Design, synthesis and optimization of Apcin analogues as Cdc20 inhibitors for triple-negative breast cancer therapy” (Eur J Med Chem, 2025).
Activity calls are given as the source filed them. The calls are words filed in the database; no cut-off is given here.

Columns and labels:
MDA-MB-231 [1] = test: Antiproliferative activity against human MDA-MB-231 cells measured after 3 days by CCK-8 method; conditions: MDA-MB-231, 72 h
MDA-MB-435 = test: Antiproliferative activity against human MDA-MB-435 cells measured after 3 days by CCK-8 method; conditions: MDA-MB-435, 72 h
[2] = Antiproliferative activity against human MCF-10A cells assessed as inhibition of cell growth measured after 48 hrs by CCK-8 method; format: toxicity, cell-based
[3] = Antiproliferative activity against human HK-2 cells assessed as inhibition of cell growth measured after 48 hrs by CCK-8 method; format: toxicity, cell-based
[4] = Antiproliferative activity against rat H9c2 cells assessed as inhibition of cell growth measured after 48 hrs by CCK-8 method; format: toxicity, cell-based
MDA-MB-231 [5] = test: Induction of cell cycle arrest in human MDA-MB-231 cells assessed as increase in accumulation of cells at G2/M phase at 2 uM measured after 24 hrs by PI staining based flow cytometry analysis (reference value: 26.38%); format: functional
MDA-MB-231 [6] = test: Induction of cell cycle arrest in human MDA-MB-231 cells assessed as increase in accumulation of cells at G2/M phase at 4 uM measured after 24 hrs by PI staining based flow cytometry analysis (reference value: 26.38%); format: functional
MDA-MB-231 [7] = test: Induction of cell cycle arrest in human MDA-MB-231 cells assessed as increase in accumulation of cells at G2/M phase at 8 uM measured after 24 hrs by PI staining based flow cytometry analysis (reference value: 26.38%); format: functional
MDA-MB-231 [8] = test: Induction of cell cycle arrest in human MDA-MB-231 cells assessed as upregulation of phosphorylated histone H3 level at 2 to 4 uM measured after 12 hrs by Western blot analysis; format: functional, cell-based; conditions: dose 2-4 µM
MDA-MB-231 [9] = test: Induction of apoptosis in human MDA-MB-231 cells assessed as increase in cleaved PARP expression at 2 to 4 uM measured after 12 hrs by Western blot analysis; format: functional, cell-based; conditions: dose 2-4 µM
MDA-MB-231 [10] = test: Induction of apoptosis in human MDA-MB-231 cells assessed as viable cells at 2 uM incubated for 24 hrs by Annexin V-FITC/PI staining based flow cytometry analysis (reference value: 94.1%); format: functional; conditions: read-out: Activity
MDA-MB-231 [11] = test: Induction of apoptosis in human MDA-MB-231 cells assessed as viable cells at 4 uM incubated for 24 hrs by Annexin V-FITC/PI staining based flow cytometry analysis (reference value: 94.1%); format: functional; conditions: read-out: Activity
MDA-MB-231 [12] = test: Induction of apoptosis in human MDA-MB-231 cells assessed as viable cells at 8 uM incubated for 24 hrs by Annexin V-FITC/PI staining based flow cytometry analysis (reference value: 94.1%); format: functional; conditions: read-out: Activity
MDA-MB-231 [13] = test: Induction of apoptosis in human MDA-MB-231 cells assessed as early apoptotic cells at 2 uM incubated for 24 hrs by Annexin V-FITC/PI staining based flow cytometry analysis (reference value: 5.40%); format: functional
MDA-MB-231 [14] = test: Induction of apoptosis in human MDA-MB-231 cells assessed as early apoptotic cells at 4 uM incubated for 24 hrs by Annexin V-FITC/PI staining based flow cytometry analysis (reference value: 5.40%); format: functional
MDA-MB-231 [15] = test: Induction of apoptosis in human MDA-MB-231 cells assessed as early apoptotic cells at 8 uM incubated for 24 hrs by Annexin V-FITC/PI staining based flow cytometry analysis (reference value: 5.40%); format: functional
MDA-MB-231 [16] = test: Induction of apoptosis in human MDA-MB-231 cells assessed as late apoptotic cells at 2 uM incubated for 24 hrs by Annexin V-FITC/PI staining based flow cytometry analysis (reference value: 0.46%); format: functional
MDA-MB-231 [17] = test: Induction of apoptosis in human MDA-MB-231 cells assessed as late apoptotic cells at 4 uM incubated for 24 hrs by Annexin V-FITC/PI staining based flow cytometry analysis (reference value: 0.46%); format: functional
MDA-MB-231 [18] = test: Induction of apoptosis in human MDA-MB-231 cells assessed as late apoptotic cells at 8 uM incubated for 24 hrs by Annexin V-FITC/PI staining based flow cytometry analysis (reference value: 0.46%); format: functional
MDA-MB-231 [19] = test: Induction of apoptosis in human MDA-MB-231 cells assessed as necrotic cells at 2 uM incubated for 24 hrs by Annexin V-FITC/PI staining based flow cytometry analysis (reference value: 0.033%); format: functional
MDA-MB-231 [20] = test: Induction of apoptosis in human MDA-MB-231 cells assessed as necrotic cells at 4 uM incubated for 24 hrs by Annexin V-FITC/PI staining based flow cytometry analysis (reference value: 0.033%); format: functional
MDA-MB-231 [21] = test: Induction of apoptosis in human MDA-MB-231 cells assessed as necrotic cells at 8 uM incubated for 24 hrs by Annexin V-FITC/PI staining based flow cytometry analysis (reference value: 0.033%); format: functional
MDA-MB-231 [22] = test: Induction of DNA damage in human MDA-MB-231 cells assessed as increase in gamma-H2AX fluorescence intensity at 1 to 4 uM incubated for 48 hrs by immunofluorescence staining based analysis; format: functional, cell-based; conditions: dose 1-4 µM
MDA-MB-231 [23] = test: Induction of DNA damage in human MDA-MB-231 cells assessed as increase in gamma-H2AX expression at 1 to 4 uM incubated for 24 hrs by Western blot analysis; format: functional, cell-based; conditions: dose 1-4 µM
MDA-MB-231 [24] = test: Antiproliferative activity against human MDA-MB-231 cells assessed as reduction in number of cells in S phase at 1 to 4 uM measured after 48 hrs by EdU incorporation assay; format: functional, cell-based; conditions: dose 1-4 µM
MDA-MB-231 [25] = test: Antitumor activity against human MDA-MB-231 cells xenografted in BALB/c nude mouse model assessed as reduction in tumor volume at 15 to 30 mg/kg, ip administered daily for 18 days by vernier caliper method; format: functional, organism-based; conditions: dose 15-30 mg/kg, time 18.0 day
MDA-MB-231 [26] = test: Antitumor activity against human MDA-MB-231 cells xenografted in BALB/c nude mouse model assessed as reduction in tumor weight at 15 to 30 mg/kg, ip administered daily for 18 days by vernier caliper method; format: functional, organism-based; conditions: dose 15-30 mg/kg, time 18.0 day
MDA-MB-231 [27] = test: Antitumor activity against human MDA-MB-231 cells xenografted in BALB/c nude mouse model assessed as reduction in tumor growth at 15 mg/kg, ip administered daily for 18 days by vernier caliper method relative to control; format: functional; design: scale not given: the % may be the effect or the level left; conditions: time 18 day
MDA-MB-231 [28] = test: Antitumor activity against human MDA-MB-231 cells xenografted in BALB/c nude mouse model assessed as reduction in tumor growth at 30 mg/kg, ip administered daily for 18 days by vernier caliper method relative to control; format: functional; design: scale not given: the % may be the effect or the level left; conditions: time 18 day
[29] = Toxicity in BALB/c nude mouse assessed as effect on body weight at 15 to 30 mg/kg, ip administered daily for 18 days; format: organism-based; conditions: in vivo, 432 h, dose 15-30 mg/kg, time 18 day
[30] = Toxicity in BALB/c nude mouse assessed as change in ALT level in liver serum at 15 to 30 mg/kg, ip administered daily for 18 days; format: organism-based; conditions: in vivo, 432 h, dose 15-30 mg/kg, time 18 day
[31] = Toxicity in BALB/c nude mouse assessed as change in AST level in liver serum at 15 to 30 mg/kg, ip administered daily for 18 days; format: organism-based; conditions: in vivo, 432 h, dose 15-30 mg/kg, time 18 day
[32] = Toxicity in BALB/c nude mouse assessed as change in BUN level in kidney serum at 15 to 30 mg/kg, ip administered daily for 18 days; format: organism-based; conditions: in vivo, 432 h, dose 15-30 mg/kg, time 18 day
[33] = Toxicity in BALB/c nude mouse assessed as change in CREA level in kidney serum at 15 to 30 mg/kg, ip administered daily for 18 days; format: organism-based; conditions: in vivo, 432 h, dose 15-30 mg/kg, time 18 day
[34] = Toxicity in BALB/c nude mouse assessed as change in CK level in heart serum at 15 to 30 mg/kg, ip administered daily for 18 days; format: organism-based; conditions: in vivo, 432 h, dose 15-30 mg/kg, time 18 day
[35] = Toxicity in BALB/c nude mouse assessed as change in LDH level in heart serum at 15 to 30 mg/kg, ip administered daily for 18 days; format: organism-based; conditions: in vivo, 432 h, dose 15-30 mg/kg, time 18 day
[36] = Toxicity in BALB/c nude mouse assessed as effect on liver at 15 to 30 mg/kg, ip measured after 18 days; format: organism-based; conditions: in vivo, 432 h, dose 15-30 mg/kg, time 18 day
[37] = Toxicity in BALB/c nude mouse assessed as effect on kidney at 15 to 30 mg/kg, ip measured after 18 days; format: organism-based; conditions: in vivo, 432 h, dose 15-30 mg/kg, time 18 day
[38] = Toxicity in BALB/c nude mouse assessed as effect on heart at 15 to 30 mg/kg, ip measured after 18 days; format: organism-based; conditions: in vivo, 432 h, dose 15-30 mg/kg, time 18 day
MDA-MB-231 [39] = test: cells; conditions: Homo sapiens, MDA-MB-231, 48 h
Description: Antiproliferative activity against human MDA-MB-231 cells assessed as inhibition of cell growth measured after 48 hrs by CCK-8 method

MDA-MB-436 = test: cells; conditions: Homo sapiens, MDA-MB-436, 48 h
Description: Antiproliferative activity against human MDA-MB-436 cells assessed as inhibition of cell growth measured after 48 hrs by CCK-8 method

MCF7 = test: cells; conditions: Homo sapiens, MCF7, 48 h
Description: Antiproliferative activity against human MCF7 cells assessed as inhibition of cell growth measured after 48 hrs by CCK-8 method

HeLa = test: Antiproliferative activity against human HeLa cells measured after 48 hrs by CCK-8 method

In the case of `Cc1ncsc1-c1ccc(CNC(=O)[C@@H]2C[C@@H](O)CN2C(=O)[C@@H](NC(=O)CCOCCOCCOCCOCCOCCC(=O)NCCCOC(=O)NC(Nc2ncccn2)C(Cl)(Cl)Cl)C(C)(C)C)cc1` (stereo partly drawn), the IC50 (MDA-MB-231 [1]) is reported as 2600 nM and the IC50 (MDA-MB-435) is reported as 2000 nM.
`O=C(NC(Nc1nc(Cl)cc(Nc2ccc(C(F)(F)F)cc2)n1)C(Cl)(Cl)Cl)OCCNC(=O)c1cnc(C(F)(F)F)s1` (stereo not drawn) gave an IC50 at 48 h [2] of 23.9 µM, an IC50 at 48 h [3] of 23.4 µM and an IC50 at 48 h [4] of 19.4 µM. The Activity (MDA-MB-231 [5]) was 26.89%, the Activity (MDA-MB-231 [6]) was 34.91% and the Activity (MDA-MB-231 [7]) was 54.71%. The Activity (MDA-MB-231 [8]) was “Active”, the Activity (MDA-MB-231 [9]) was “Active” and the viability at 2 µM (MDA-MB-231 [10]) was 91.7%. The viability at 4 µM (MDA-MB-231 [11]) was 85.4%, the viability at 8 µM (MDA-MB-231 [12]) was 52.4% and the Activity (MDA-MB-231 [13]) was 7.46%. The Activity (MDA-MB-231 [14]) was 13.4%, the Activity (MDA-MB-231 [15]) was 38.8% and the Activity (MDA-MB-231 [16]) was 0.26%. The Activity (MDA-MB-231 [17]) was 0.62%, the Activity (MDA-MB-231 [18]) was 7.61% and the Activity (MDA-MB-231 [19]) was 0.01%. For the same compound, the Activity (MDA-MB-231 [20]) was 0.62%, the Activity (MDA-MB-231 [21]) was 1.1% and the Activity (MDA-MB-231 [22]) was “Active”. The Activity (MDA-MB-231 [23]) was “Active”, the Activity (MDA-MB-231 [24]) was “Active” and the Activity (MDA-MB-231 [25]) was “Active”. For the same compound, the Activity (MDA-MB-231 [26]) was “Active”, the Activity (MDA-MB-231 [27]) was 86% and the Activity (MDA-MB-231 [28]) was 90%. The Activity [29] was “Non-toxic”, the Activity [30] was “Non-toxic” and the Activity [31] was “Non-toxic”. For the same compound, the Activity [32] was “Non-toxic”, the Activity [33] was “Non-toxic” and the Activity [34] was “Non-toxic”. The Activity [35] was “Non-toxic”, the Activity [36] was “Non-toxic” and the Activity [37] was “Non-toxic”. For the same compound, the Activity [38] was “Non-toxic”, the IC50 (MDA-MB-231 [39]) was 3.28 µM and the IC50 (MDA-MB-436) was 3.86 µM. The IC50 (MCF7) was 13.8 µM.
For `Nc1nc(F)nc2c1ncn2C(NC(=O)NCCN1CCOCC1)C(Cl)(Cl)Cl` (stereo not drawn), the IC50 (HeLa) was 60 nM.
